Experimental data taken from patent US8026278B2, “Inhibitors of pyruvate kinase as therapeutic agents for cancer” (priority 2005, dated 2011).
Structures can show the parent of a compound that is named as a salt. Where two headings read alike, the source gives them in different places.

Key:
[1] = tested on: MCF7 (breast) cancer cell line; test: MTT assay, inhibition of cell proliferation, MCF7; type: cell-based; settings: MCF7, 72 hours
Experimental: (§1) The compounds of the invention were tested for their inhibition potential of cell proliferation. MCF7 (breast) and SF268 (glioma) cancer cell lines were incubated with different concentrations of the compounds and their viability was assessed using an MTT (3-(4,5-dimethylthiazol-2-yl)-2,5-diphenyltetrazolium bromide) assay. The MTT assay is well known in the art (see for example Slater et al., Biochim. Biophys. Acta 77 (1963) 383). The cells were incubated with a given inhibitor for 72 hours and assayed.

[2] = target: T1, Pyruvate kinase isolated from rabbit muscle (Oryctolagus cuniculus, UniProt P11974); test: Inhibition of pyruvate kinase (indirect assay quantifying ADP production); type: biochemical
T1 construct: Pyruvate kinase isolated from rabbit muscle; purchased Sigma-Aldrich; host or cells: rabbit muscle (tissue-derived enzyme)
T1 sequence (P11974 whole entry): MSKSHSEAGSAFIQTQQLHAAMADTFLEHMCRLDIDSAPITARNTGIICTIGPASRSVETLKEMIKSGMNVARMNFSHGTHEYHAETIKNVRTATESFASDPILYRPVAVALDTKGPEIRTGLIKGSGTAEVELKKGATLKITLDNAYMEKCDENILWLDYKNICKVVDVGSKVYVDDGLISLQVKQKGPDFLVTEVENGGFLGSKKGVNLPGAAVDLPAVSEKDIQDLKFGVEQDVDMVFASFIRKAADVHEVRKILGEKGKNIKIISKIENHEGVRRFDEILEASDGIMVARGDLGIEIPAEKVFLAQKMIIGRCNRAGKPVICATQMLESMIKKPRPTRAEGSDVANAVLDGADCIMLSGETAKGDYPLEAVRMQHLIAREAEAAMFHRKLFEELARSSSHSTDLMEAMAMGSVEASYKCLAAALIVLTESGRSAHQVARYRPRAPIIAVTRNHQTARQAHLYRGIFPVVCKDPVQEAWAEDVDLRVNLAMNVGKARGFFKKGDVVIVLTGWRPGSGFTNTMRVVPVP
Experimental: The compounds E-3-chlorophosphoenolpyruvate ditriethyl-ammonium salt (ECPDAT), Z-3-chlorophosphoenolpyruvate tritriethyl-ammonium salt (CPTP), phosphoenol-3-bromo-pyruvic acid mono-cyclohexyl ammonium salt (PBPA), 2-bromooxoethylphosphonic acid mono-cyclohexyl-ammonium salt (BOEPA) and 3-bromopyruvic acid (BrPyA) were tested for their efficiency at inhibiting pyruvate kinase. Pyruvate kinase isolated from rabbit muscle was purchased from Sigma-Aldrich. Pyruvate kinase was assayed indirectly by quantifying ADP production formed in the reaction ATP+pyruvate to ADP+phosphoenolpyruvate. Inhibitors were added to the reaction mixture immediately before the reaction was started by the addition of ATP.

[3] = tested on: SF268 (glioma) cancer cell line; test: MTT assay, inhibition of cell proliferation, SF268; type: cell-based; settings: SF268, 72 hours
Experimental: as §1

For `O=C(CBr)P(=O)(O)O` [BOEPA], the “Inhibition of cell proliferation” value [1] was “inhibited cell proliferation”, the “% (A-Blank relative to control)” value ([1]; 10 uM) was 93.37% and the “A-Blank (Average-Blank) O.D. at 570 nm” value ([1]; 10 uM) was 0.7642 O.D. For the same compound, the “Average O.D. reading at 570 nm” value ([1]; 10 uM) was 0.8518 O.D, the “% (A-Blank relative to control)” value ([1]; 25 uM) was 93.769% and the “A-Blank (Average-Blank) O.D. at 570 nm” value ([1]; 25 uM) was 0.7675 O.D. The “Average O.D. reading at 570 nm” value ([1]; 25 uM) was 0.855 O.D, the “% (A-Blank relative to control)” value ([1]; 50 uM) was 91.142% and the “A-Blank (Average-Blank) O.D. at 570 nm” value ([1]; 50 uM) was 0.746 O.D. For the same compound, the “Average O.D. reading at 570 nm” value ([1]; 50 uM) was 0.8335 O.D, the “% (A-Blank relative to control)” value ([1]; 75 uM) was 93.28% and the “A-Blank (Average-Blank) O.D. at 570 nm” value ([1]; 75 uM) was 0.7635 O.D. The “Average O.D. reading at 570 nm” value ([1]; 75 uM) was 0.851 O.D, the “% (A-Blank relative to control)” value ([1]; 100 uM) was 91.57% and the “A-Blank (Average-Blank) O.D. at 570 nm” value ([1]; 100 uM) was 0.7495 O.D. For the same compound, the “Average O.D. reading at 570 nm” value ([1]; 100 uM) was 0.837 O.D, the “% (A-Blank relative to control)” value ([1]; 200 uM) was 89.249% and the “A-Blank (Average-Blank) O.D. at 570 nm” value ([1]; 200 uM) was 0.7305 O.D. For the same compound, the “Average O.D. reading at 570 nm” value ([1]; 200 uM) was 0.818 O.D, the “% (A-Blank relative to control)” value ([1]; 300 uM) was 56.2004% and the “A-Blank (Average-Blank) O.D. at 570 nm” value ([1]; 300 uM) was 0.46 O.D. The “Average O.D. reading at 570 nm” value ([1]; 300 uM) was 0.5475 O.D, the “% (A-Blank relative to control)” value ([1]; 500 uM) was 36.68% and the “A-Blank (Average-Blank) O.D. at 570 nm” value ([1]; 500 uM) was 0.3003 O.D. For the same compound, the “Average O.D. reading at 570 nm” value ([1]; 500 uM) was 0.3877 O.D, the inhibition at 0.1 µM [2] was 0% and the inhibition at 1 µM [2] was 0%. For the same compound, the inhibition at 10 µM [2] was 0%, the “Inhibition of cell proliferation” value [3] was “inhibited cell proliferation” and the “% (A-Blank relative to control)” value ([3]; 10 uM) was 101.2806%. The “A-Blank (Average-Blank) O.D. at 570 nm” value ([3]; 10 uM) was 0.692 O.D, the “Average O.D. reading at 570 nm” value ([3]; 10 uM) was 0.7792 O.D and the “% (A-Blank relative to control)” value ([3]; 25 uM) was 99.49%. For the same compound, the “A-Blank (Average-Blank) O.D. at 570 nm” value ([3]; 25 uM) was 0.68 O.D, the “Average O.D. reading at 570 nm” value ([3]; 25 uM) was 0.767 O.D and the “% (A-Blank relative to control)” value ([3]; 50 uM) was 100.8%. For the same compound, the “A-Blank (Average-Blank) O.D. at 570 nm” value ([3]; 50 uM) was 0.689 O.D, the “Average O.D. reading at 570 nm” value ([3]; 50 uM) was 0.776 O.D and the “% (A-Blank relative to control)” value ([3]; 75 uM) was 96.52%. The “A-Blank (Average-Blank) O.D. at 570 nm” value ([3]; 75 uM) was 0.66 O.D, the “Average O.D. reading at 570 nm” value ([3]; 75 uM) was 0.747 O.D and the “% (A-Blank relative to control)” value ([3]; 100 uM) was 90.45%. For the same compound, the “A-Blank (Average-Blank) O.D. at 570 nm” value ([3]; 100 uM) was 0.618 O.D, the “Average O.D. reading at 570 nm” value ([3]; 100 uM) was 0.705 O.D and the “% (A-Blank relative to control)” value ([3]; 200 uM) was 53.055%. For the same compound, the “A-Blank (Average-Blank) O.D. at 570 nm” value ([3]; 200 uM) was 0.3625 O.D, the “Average O.D. reading at 570 nm” value ([3]; 200 uM) was 0.4498 O.D and the “% (A-Blank relative to control)” value ([3]; 300 uM) was 12.221%. For the same compound, the “A-Blank (Average-Blank) O.D. at 570 nm” value ([3]; 300 uM) was 0.0835 O.D, the “Average O.D. reading at 570 nm” value ([3]; 300 uM) was 0.1708 O.D and the “% (A-Blank relative to control)” value ([3]; 500 uM) was 5.196%. For the same compound, the “A-Blank (Average-Blank) O.D. at 570 nm” value ([3]; 500 uM) was 0.0355 O.D and the “Average O.D. reading at 570 nm” value ([3]; 500 uM) was 0.1227 O.D.
Work on `O=C(O)C(=O)CBr` [BrPyA, 3-bromopyruvic acid, reference compound] yielded an inhibition at 100 µM ([2]; Concentration 0.1 mM) of 0%, an inhibition at 1000 µM ([2]; Concentration 1 mM) of 0% and an inhibition at 10000 µM ([2]; Concentration 10 mM) of 10.9%. It also gave an inhibition at 100000 µM ([2]; Concentration 100 mM) of 57.8%.
With `O=C(O)C(=CBr)OP(=O)(O)O` [PBPA, phosphoenol-3-bromo-pyruvic acid mono-cyclohexyl ammonium salt] the “Inhibition of cell proliferation” value [1] was “inhibited cell proliferation”, the “% (A-Blank relative to control)” value ([1]; 10 uM) was 94.23% and the “A-Blank (Average-Blank) O.D. at 570 nm” value ([1]; 10 uM) was 0.7632 O.D. The “Average O.D. reading at 570 nm” value ([1]; 10 uM) was 0.846 O.D, the “% (A-Blank relative to control)” value ([1]; 25 uM) was 97.16% and the “A-Blank (Average-Blank) O.D. at 570 nm” value ([1]; 25 uM) was 0.787 O.D. The “Average O.D. reading at 570 nm” value ([1]; 25 uM) was 0.8698 O.D, the “% (A-Blank relative to control)” value ([1]; 50 uM) was 97.901% and the “A-Blank (Average-Blank) O.D. at 570 nm” value ([1]; 50 uM) was 0.793 O.D. For the same compound, the “Average O.D. reading at 570 nm” value ([1]; 50 uM) was 0.8758 O.D, the “% (A-Blank relative to control)” value ([1]; 75 uM) was 98.827% and the “A-Blank (Average-Blank) O.D. at 570 nm” value ([1]; 75 uM) was 0.8005 O.D. For the same compound, the “Average O.D. reading at 570 nm” value ([1]; 75 uM) was 0.8833 O.D, the “% (A-Blank relative to control)” value ([1]; 100 uM) was 95.71% and the “A-Blank (Average-Blank) O.D. at 570 nm” value ([1]; 100 uM) was 0.7753 O.D. For the same compound, the “Average O.D. reading at 570 nm” value ([1]; 100 uM) was 0.858 O.D, the “% (A-Blank relative to control)” value ([1]; 200 uM) was 93.333% and the “A-Blank (Average-Blank) O.D. at 570 nm” value ([1]; 200 uM) was 0.756 O.D. The “Average O.D. reading at 570 nm” value ([1]; 200 uM) was 0.8388 O.D, the “% (A-Blank relative to control)” value ([1]; 300 uM) was 84.9074% and the “A-Blank (Average-Blank) O.D. at 570 nm” value ([1]; 300 uM) was 0.6877 O.D. For the same compound, the “Average O.D. reading at 570 nm” value ([1]; 300 uM) was 0.7705 O.D, the “% (A-Blank relative to control)” value ([1]; 500 uM) was 75.31% and the “A-Blank (Average-Blank) O.D. at 570 nm” value ([1]; 500 uM) was 0.61 O.D. The “Average O.D. reading at 570 nm” value ([1]; 500 uM) was 0.6927 O.D, the “Inhibition of pyruvate kinase compared with BrPyA” value [2] was “inhibited pyruvate kinase at lower concentrations than BrPyA” and the inhibition at 0.1 µM ([2]; Concentration 0.1 μM, read-out: % Inhibition) was 0%. For the same compound, the inhibition at 1 µM ([2]; Concentration 1 μM, read-out: % Inhibition) was 13.8%, the inhibition at 10 µM ([2]; Concentration 10 μM, read-out: % Inhibition) was 28.6% and the “Inhibition of cell proliferation” value [3] was “inhibited cell proliferation”. The “% (A-Blank relative to control)” value ([3]; 10 uM) was 100.1%, the “A-Blank (Average-Blank) O.D. at 570 nm” value ([3]; 10 uM) was 0.6935 O.D and the “Average O.D. reading at 570 nm” value ([3]; 10 uM) was 0.7798 O.D. For the same compound, the “% (A-Blank relative to control)” value ([3]; 25 uM) was 102.02%, the “A-Blank (Average-Blank) O.D. at 570 nm” value ([3]; 25 uM) was 0.7068 O.D and the “Average O.D. reading at 570 nm” value ([3]; 25 uM) was 0.793 O.D. The “% (A-Blank relative to control)” value ([3]; 50 uM) was 99.567%, the “A-Blank (Average-Blank) O.D. at 570 nm” value ([3]; 50 uM) was 0.6898 O.D and the “Average O.D. reading at 570 nm” value ([3]; 50 uM) was 0.776 O.D. The “% (A-Blank relative to control)” value ([3]; 75 uM) was 100.11%, the “A-Blank (Average-Blank) O.D. at 570 nm” value ([3]; 75 uM) was 0.6935 O.D and the “Average O.D. reading at 570 nm” value ([3]; 75 uM) was 0.7798 O.D. The “% (A-Blank relative to control)” value ([3]; 100 uM) was 95.453%, the “A-Blank (Average-Blank) O.D. at 570 nm” value ([3]; 100 uM) was 0.6613 O.D and the “Average O.D. reading at 570 nm” value ([3]; 100 uM) was 0.7475 O.D. For the same compound, the “% (A-Blank relative to control)” value ([3]; 200 uM) was 90.978%, the “A-Blank (Average-Blank) O.D. at 570 nm” value ([3]; 200 uM) was 0.6303 O.D and the “Average O.D. reading at 570 nm” value ([3]; 200 uM) was 0.7165 O.D. For the same compound, the “% (A-Blank relative to control)” value ([3]; 300 uM) was 79.7546%, the “A-Blank (Average-Blank) O.D. at 570 nm” value ([3]; 300 uM) was 0.5525 O.D and the “Average O.D. reading at 570 nm” value ([3]; 300 uM) was 0.6388 O.D. For the same compound, the “% (A-Blank relative to control)” value ([3]; 500 uM) was 74.49%, the “A-Blank (Average-Blank) O.D. at 570 nm” value ([3]; 500 uM) was 0.516 O.D and the “Average O.D. reading at 570 nm” value ([3]; 500 uM) was 0.6022 O.D.
